Data from ChEMBL document CHEMBL5518158, “Recent advances in triazoles as tyrosinase inhibitors” (Eur J Med Chem, 2023).
Values joined by “and” are separate entries in the source; they are usually repeats but may differ in a detail not shown here. Equal entries are not always repeated.

Each compound was assayed against T1, Mushroom tyrosinase (Agaricus bisporus, UniProt O42713+Q00024+C7FF04+C7FF05) (assay: Inhibition of mushroom tyrosinase using L-DOPA as substrate preincubated for 10 mins).
Format: protein assay

Row | Structure (SMILES) | IC50 [µM]
1 | Nn1c(SCc2cc(=O)c(O)co2)nnc1-c1ccc(Cl)cc1 | 4.5
2 | O=c1cc(O)oc(CSc2nnc(-c3ccccc3Cl)n2/N=C/c2ccc(O)c(O)c2)c1 | 5.2
3 | O=C(CSc1nnc(-c2ccccc2F)n1-c1ccc(F)cc1)Nc1ccccc1 | 0.11
4 | O=C(CSc1nnc(-c2ccccc2)n1-c1ccc(F)cc1)Nc1ccc(Br)cc1 | 0.142
5 | O=C(CSc1nnc(-c2ccc(F)cc2)n1-c1ccc(F)cc1)Nc1ccccc1 | 0.124
6 | Nn1c(SCc2cc(=O)c(O)co2)nnc1-c1ccccc1Br | 5.98
7 | Cc1nnc(SCc2cc(=O)c(O)co2)n1N | 91.03
8 | O=c1cc(O)oc(CSc2nnc(-c3ccccc3)n2NCc2ccc(O)cc2O)c1 | 1.35
9 | Cn1cnnc1SCc1cc(=O)c(O)co1 | 19.18
10 | Nn1c(SCc2cc(=O)c(O)co2)nnc1-c1ccccc1 | 7.45
11 | Nn1c(SCc2cc(=O)c(O)co2)nnc1-c1ccccc1Cl | 5.35
12 | Cc1ccc(-c2nnc(SCc3cc(=O)c(O)co3)n2N)cc1 | 6.25
13 | CCCCCn1nc(-c2ccccc2)n(CC(=O)NNC(=O)Nc2ccc(Cl)cc2Cl)c1=O | 0.001

These compounds were tested against T1, Mushroom tyrosinase (assay: Inhibition of mushroom tyrosinase using L-DOPA as substrate preincubated for 10 mins followed by substrate addition and measured after 15 mins by spectrophotometric method).
Format: protein assay

Row | Structure (SMILES) | IC50 [µM]
14 | Cc1ccc(CNC(=O)CSc2nnc(Cc3csc(N)n3)n2-c2ccccc2)cc1C | 0.113
15 | CCc1ccc(CNC(=O)CSc2nnc(Cc3csc(N)n3)n2-c2ccccc2)cc1 | 0.122
16 | Cc1ccccc1CNC(=O)CSc1nnc(Cc2csc(N)n2)n1-c1ccccc1 | 0.015
17 | Cc1cc(C)cc(CNC(=O)CSc2nnc(Cc3csc(N)n3)n2-c2ccccc2)c1 | 0.24
18 | Cc1cccc(CNC(=O)CSc2nnc(Cc3csc(N)n3)n2-c2ccccc2)c1C | 2.01
19 | Nc1nc(Cc2nnc(SCC(=O)NCCc3ccccc3)n2-c2ccccc2)cs1 | 0.01
20 | Cc1cccc(C)c1CNC(=O)CSc1nnc(Cc2csc(N)n2)n1-c1ccccc1 | 0.05

These compounds were tested against T1, Mushroom tyrosinase (assay: Inhibition of mushroom tyrosinase using L-DOPA as substrate pre-treated for 10 mins followed by substrate addition measured for 20 mins by spectrophotometric analysis).
Format: protein assay

Row | Structure (SMILES) | IC50 [µM]
21 | CCn1c(Cc2csc(N)n2)nnc1SCc1ccccc1Cl | 0.006
22 | Cc1ccccc1CNC(=O)CSc1nnc(Cc2csc(N)n2)n1-c1ccccc1 | 16.832
23 | CCn1c(Cc2csc(N)n2)nnc1SCc1ccc(Cl)cc1Cl | 0.001
24 | CCn1c(Cc2csc(N)n2)nnc1SCc1cccc(Br)c1 | 0.002
25 | CCn1c(Cc2csc(N)n2)nnc1SCc1ccc(Cl)cc1 | 0.006

These compounds were tested against T1, Mushroom tyrosinase (assay: Inhibition of mushroom tyrosinase).
Format: protein assay

Row | Structure (SMILES) | IC50 [µM]
26 | COc1cc(C=O)ccc1O [VANILLIN] | 4103
27 | COc1ccc2c(c1)CC/C(=C\c1ccc(OCc3cn(Cc4cccc(Cl)c4)nn3)c(OC)c1)C2=O | 4.64
28 | Nn1c(S)nnc1N/N=C/c1cccc(Cl)c1 | 15
29 | CCn1c(CCCc2c[nH]c3ccccc23)nnc1SCC(=O)Nc1ccc(C)cc1C | 0.034
30 | Cc1ccc(Cn2cc(COc3ccc(-c4nc5ccccc5[nH]4)cc3)nn2)cc1C | 9.42
31 | NC(=S)N/N=C/c1ccc(OCc2cn(CC(=O)NCc3ccccc3)nn2)cc1 | 0.11
32 | CCn1c(CCCc2c[nH]c3ccccc23)nnc1SCC(=O)Nc1ccccc1C | 0.036
33 | CCn1c(CCCc2c[nH]c3ccccc23)nnc1SCC(=O)Nc1c(C)cccc1C | 0.035
34 | Nn1c(S)nnc1N/N=C/c1cccc(C(F)(F)F)c1 | 9
35 | C=CCc1ccc(O)c(OC)c1 [EUGENOL] | 923
36 | Cc1ccc(Cn2cc(COc3ccc(-c4nc5ccccc5[nH]4)cc3)nn2)cc1 | 10.34
37 | Cc1ccc2nc(-c3ccc(OCc4cn(Cc5ccccc5)nn4)cc3)[nH]c2c1 | 43.3
38 | COc1ccc(/C=N/Nc2nnc(S)n2N)cc1O | 3.4
39 | O=C1N=C(Nc2ccncc2)S/C1=C\c1ccccc1OCc1cn(Cc2ccc(Cl)c(Cl)c2)nn1 | 5.9
40 | COc1ccccc1-n1c(SCC(=O)Nc2ccc(Br)cc2)nnc1-c1ccccc1F | 0.0048
41 | CCOc1ccc(NC(=O)CSc2nnc(CCCc3c[nH]c4ccccc34)n2CC)cc1 | 0.072
42 | CCc1ccccc1NC(=O)CSc1nnc(CCCc2c[nH]c3ccccc23)n1CC | 0.033
43 | O=C1N=C(Nc2ccncc2)S/C1=C\c1ccccc1OCc1cn(Cc2ccccc2Cl)nn1 | 6.34
44 | O=C1N=C(Nc2ccccc2)S/C1=C\c1ccccc1OCc1cn(Cc2ccccc2)nn1 | 8.92
45 | COc1ccc2c(c1)CC/C(=C\c1ccc(OCc3cn(Cc4ccccc4F)nn3)c(OC)c1)C2=O | 67.18
46 | CCn1c(CCCc2c[nH]c3ccccc23)nnc1SCC(=O)Nc1cccc(C)c1C | 0.142
47 | COc1ccccc1-n1c(SCC(=O)Nc2ccccc2)nnc1-c1ccccc1 | 0.0238
48 | COc1cc(/C=N/Nc2nnc(S)n2N)ccc1O | 14.6
49 | O=C1N=C(Nc2ccccc2)S/C1=C\c1ccccc1OCc1cn(Cc2cccc(Br)c2)nn1 | 9.81
50 | O=C1N=C(Nc2ccccc2)S/C1=C\c1ccc(OCc2cnnn2Cc2ccc(Cl)c(Cl)c2)cc1 | 49.4

These compounds were tested against T2, Mushroom tyrosinase (Agaricus bisporus) (UniProt O42713+Q00024+C7FF04+C7FF05) (assay: Inhibition of mushroom tyrosinase at 100 uM relative to control).
Format: protein assay

Row | Structure (SMILES) | inhibition [%]
51 | Nn1c(S)nnc1N/N=C/c1cccc(Cl)c1 | 81
52 | Nn1c(S)nnc1N/N=C/c1cccc(C(F)(F)F)c1 | 95
53 | COc1ccc(/C=N/Nc2nnc(S)n2N)cc1O | 98

These compounds were tested against T1, Mushroom tyrosinase (assay: Inhibition of mushroom tyrosinase using L-DOPA as substrate incubated for 20 mins).
Format: protein assay

Row | Structure (SMILES) | IC50 [µM]
54 | Oc1ccccc1Cc1n[nH]c(=S)n1/N=C/c1ccc[nH]1 | 26.02
55 | COc1ccccc1Cc1n[nH]c(=S)n1/N=C/Cc1ccc(O)cc1 | 20.27
56 | Oc1ccc(/C=N/n2c(Cc3ccccc3F)n[nH]c2=S)cc1 | 6.23
57 | Fc1ccc(/C=N/n2c(Cc3ccccc3F)n[nH]c2=S)cc1 | 10.09

Each compound was assayed against T3, Tyrosinase (Homo sapiens, UniProt P14679) (assay: Inhibition of C-terminal His-tagged truncated form of human tyrosinase using L-DOPA as substrate by spectrophotometric assay).
T3 sequence (P14679 whole entry): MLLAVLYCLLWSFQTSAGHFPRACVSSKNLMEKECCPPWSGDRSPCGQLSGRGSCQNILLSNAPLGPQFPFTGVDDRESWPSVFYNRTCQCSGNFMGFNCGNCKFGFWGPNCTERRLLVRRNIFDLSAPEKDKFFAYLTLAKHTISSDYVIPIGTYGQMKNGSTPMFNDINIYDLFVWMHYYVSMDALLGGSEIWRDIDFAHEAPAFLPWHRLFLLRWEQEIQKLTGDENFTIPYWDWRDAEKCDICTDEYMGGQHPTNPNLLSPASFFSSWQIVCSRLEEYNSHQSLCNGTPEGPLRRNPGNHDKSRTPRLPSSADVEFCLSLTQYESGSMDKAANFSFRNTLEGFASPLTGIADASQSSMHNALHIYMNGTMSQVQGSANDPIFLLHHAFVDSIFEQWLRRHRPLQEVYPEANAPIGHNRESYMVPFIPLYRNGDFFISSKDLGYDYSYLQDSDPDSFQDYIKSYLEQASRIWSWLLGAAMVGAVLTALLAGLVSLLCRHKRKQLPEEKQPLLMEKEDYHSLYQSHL

Row | Structure (SMILES) | IC50 [µM]
58 | O=C1c2ccccc2C(=O)N1Cc1cn(Cc2ccc(Br)cc2)nn1 | 40.3
59 | O=C1c2ccccc2C(=O)N1Cc1cn(Cc2ccccc2Br)nn1 | 26.5
60 | O=C1c2ccccc2C(=O)N1Cc1cn(Cc2cccc(Cl)c2)nn1 | 48.3
61 | O=C1NC(=S)NC(=O)C1=Cc1ccccc1OCc1cn(Cc2ccc(Br)cc2)nn1 | 44.2
62 | O=C1c2ccccc2C(=O)N1Cc1cn(Cc2ccccc2[N+](=O)[O-])nn1 | 26.2
63 | O=C1c2ccccc2C(=O)N1Cc1cn(Cc2ccccc2Cl)nn1 | 47.2

The compounds below were run against T2, Mushroom tyrosinase (Agaricus bisporus) (assay: (§1) Inhibition of mushroom tyrosinase using L-DOPA as substrate incubated for 15 mins by spectrophotometric analysis).
Format: protein assay

Row | Structure (SMILES) | inhibition [%]
64 | O=c1oc2ccccc2c2nn(Cc3cn(-c4c(Cl)cc(Cl)cc4Cl)nn3)cc12 | 58
65 | O=c1oc2ccccc2c2nn(Cc3cn(-c4ccccc4)nn3)cc12 | 69

Each compound was assayed against T1, Mushroom tyrosinase (assay: as §1).
Format: protein assay

Row | Structure (SMILES) | IC50
66 | O=C1NC(=S)NC(=O)C1=Cc1ccccc1OCc1cn(Cc2ccccc2)nn1 | 44.2 µM
67 | O=C1NC(=O)C(=Cc2ccccc2OCc2cn(Cc3ccccc3)nn2)C(=O)N1 | 44.2 µM
68 | O=C1NC(=O)C(=Cc2ccccc2OCc2cn(Cc3ccc(Br)cc3)nn2)C(=O)N1 | 26.8 µM and 49.1 µM

Each compound was assayed against T3, Tyrosinase (assay: Competitive inhibition of His-tagged human tyrosinase expressed in HEK293 cells).
Format: cell-based

Row | Structure (SMILES) | IC50 [µM]
69 | Cc1ccc(Cn2cc(COc3ccc(/C=N/NC(N)=S)cc3)nn2)cc1 | 0.22
70 | NC(=S)N/N=C/c1ccc(OCc2cn(Cc3ccc(F)cc3)nn2)cc1 | 0.22
71 | Cc1cccc(Cn2cc(COc3ccc(/C=N/NC(N)=S)cc3)nn2)c1 | 0.22
72 | NC(=S)N/N=C/c1ccc(OCc2cn(Cc3ccc(Cl)c(Cl)c3)nn2)cc1 | 0.22

What follows are compounds tested against T1, Mushroom tyrosinase (assay: Inhibition of mushroom tyrosinase using L-DOPA as substrate preincubated for 20 mins followed by substrate addition incubated for 10 mins by absorbance based analysis).
Format: protein assay

Row | Structure (SMILES) | IC50 [µM]
73 | O=c1cc(Cn2cc(COc3ccc4c(c3)OCO4)nn2)occ1O | 0.06
74 | Cc1ccc(C(C)C)c(OCc2cn(Cc3cc(=O)c(O)co3)nn2)c1 | 0.69
75 | Cc1ccc(C(C)C)cc1OCc1cn(Cc2cc(=O)c(O)co2)nn1 | 0.07
76 | O=c1ccc2ccc(OCc3cn(Cc4cc(=O)c(O)co4)nn3)cc2o1 | 0.23
77 | O=c1cc(OCc2cn(Cc3cc(=O)c(O)co3)nn2)c2ccccc2o1 | 0.02
78 | COc1cc(C(C)=O)ccc1OCc1cn(Cc2cc(=O)c(O)co2)nn1 | 0.03
